# Measured values from article PMC6735358, “Synthesis and bioevaluation of novel steroidal isatin conjugates derived from epiandrosterone/androsterone” (Journal of Enzyme Inhibition and Medicinal Chemistry, 2019).
# What was measured:
# in vitro = conditions: human
# Description: (§1) Assays were performed in triplicate on three independent experiments.
# [1] = system: A875 (Human melanoma cell line); test: MTT in vitro cytotoxicity, A875; conditions: A875, 72 h, read-out: In vitro cytotoxicity IC50
# Description: (§2) After removal of the growth medium, six serial dilutions of each tested compound in 200 µL test medium were added. Plates were incubated at 37 °C in a humidified atmosphere containing 5% CO2. After 72 h of exposure, the culture medium was removed and 30 µL of the MTT solution (5 mg/mL in PBS) was added to each well. The plate was further incubated for 4 h to allow MTT formazan formation. To dissolve the resulting MTT formazan, 50 µL of DMSO was added to each well, followed by thorough mixing with a microplate shaker. Absorbance at 570 nm was measured on a microplate reader (Thermo Scientific, MK3). […] Assays were performed in triplicate on three independent experiments.
# [2] = system: HepG2 (Human hepatocellular liver carcinoma cell line); test: MTT in vitro cytotoxicity, HepG2; conditions: HepG2, 72 h, read-out: In vitro cytotoxicity IC50
# Description: as §2
# [3] = system: SGC-7901 (Human gastric cancer cell line); test: MTT in vitro cytotoxicity, SGC-7901; conditions: SGC-7901, 72 h, read-out: In vitro cytotoxicity IC50
# Description: as §2
# [4] = system: SGC-7901, A875 and HepG2 cell lines; test: MTT in vitro cytotoxicity, tested cancer cell lines together; type: cell-based, human; conditions: for IC50: Homo sapiens, span over SGC-7901, A875, HepG2, read-out: range of IC50 value over the tested cancer cell lines; for dose-response of cell growth inhibition: SGC-7901, A875 and HepG2, Figure 4
# Description: as §1
Structure (SMILES),IC50 (in vitro) [µM],IC50 [1] [µM],IC50 [2] [µM],IC50 [3] [µM],IC50 [4] [µM],dose-response of cell growth inhibition [4],IC50 (in vitro; HL-7702 normal liver cells) [µM]
"Cc1ccc2c(c1)C(=NN=C1CC[C@H]3[C@@H]4CCC5C[C@@H](O)CC[C@]5(C)[C@H]4CC[C@]13C)C(=O)N2 (stereo partly drawn) [3f, 3-(((3S,8R,9S,10S,13S,14S)-3-Hydroxy-10,13-dimethyldodecahydro-1H-cyclopenta[a]phenanthren-17(2H,10H,14H)-ylidene)hydrazono)-5-methylindolin-2-one]",6.08 ± 0.54,6.01 ± 1.95,6.91 ± 0.58,7.06 ± 1.27,,,
"C[C@]12CC[C@@H](O)C[C@@H]1CC[C@@H]1[C@@H]2CC[C@]2(C)C(=NN=C3C(=O)Nc4ccc([N+](=O)[O-])cc43)CC[C@@H]12 [6g, 3-(((3R,5S,8R,9S,10S,13S,14S)-3-Hydroxy-10,13-dimethyldodecahydro-1H-cyclopenta[a]phenanthren-17(2H,10H,14H)-ylidene)hydrazono)-5-nitroindolin-2-one]",11.2 ± 3.05,3.85 ± 1.44,4.31 ± 0.92,6.4 ± 1.74,3.85 to 6.4,dose-dependent manner,
"C[C@]12CC[C@H](O)CC1CC[C@@H]1[C@@H]2CC[C@]2(C)C(=NN=C3C(=O)Nc4ccccc43)CC[C@@H]12 (stereo partly drawn) [3a, 3-(((3S,8R,9S,10S,13S,14S)-3-Hydroxy-10,13-dimethyldodecahydro-1H-cyclopenta[a]phenanthren-17(2H,10H,14H)-ylidene)hydrazono)indolin-2-one]",5.65 ± 1.59,9.51 ± 1.34,6.72 ± 1.59,7.69 ± 2.54,,,
"C[C@]12CC[C@H](O)CC1CC[C@@H]1[C@@H]2CC[C@]2(C)C(=NN=C3C(=O)Nc4ccc(Cl)cc43)CC[C@@H]12 (stereo partly drawn) [3c, 5-Chloro-3-(((3S,8R,9S,10S,13S,14S)-3-hydroxy-10,13-dimethyldodecahydro-1H-cyclopenta[a]phenanthren-17(2H,10H,14H)-ylidene)hydrazono)indolin-2-one]",5.01 ± 1.37,7.92 ± 1.95,2.39 ± 0.36,4.92 ± 1.13,,dose-dependent manner,
"C[C@]12CC[C@@H](O)C[C@@H]1CC[C@@H]1[C@@H]2CC[C@]2(C)C(=NN=C3C(=O)Nc4ccc(F)cc43)CC[C@@H]12 [6b, 5-Fluoro-3-(((3R,5S,8R,9S,10S,13S,14S)-3-hydroxy-10,13-dimethyldodecahydro-1H-cyclopenta[a]phenanthren-17(2H,10H,14H)-ylidene)hydrazono)indolin-2-one]",7.09 ± 1.57,42.2 ± 8.19,32.3 ± 4.21,9.51 ± 0.49,,,
C[C@]12CC[C@H](O)C[C@@H]1CC[C@@H]1[C@@H]2CC[C@]2(C)C(=O)CC[C@@H]12 [Epiandrosterone],91.2 ± 12.3,63.6 ± 13.2,36.7 ± 10.6,69.8 ± 8.47,,,
"C[C@]12CC[C@H](O)CC1CC[C@@H]1[C@@H]2CC[C@]2(C)C(=NN=C3C(=O)Nc4ccc([N+](=O)[O-])cc43)CC[C@@H]12 (stereo partly drawn) [3g, 3-(((3S,8R,9S,10S,13S,14S)-3-Hydroxy-10,13-dimethyldodecahydro-1H-cyclopenta[a]phenanthren-17(2H,10H,14H)-ylidene)hydrazono)-5-nitroindolin-2-one]",33.4 ± 6.15,26.2 ± 4.59,19.4 ± 3.37,11.9 ± 2.45,,,
C[C@]12CC[C@@H](O)C[C@@H]1CC[C@@H]1[C@@H]2CC[C@]2(C)C(=O)CC[C@@H]12 [Androsterone],> 100,> 100,> 100,> 100,,,
"C[C@]12CC[C@H](O)CC1CC[C@@H]1[C@@H]2CC[C@]2(C)C(=NN=C3C(=O)Nc4ccc(Br)cc43)CC[C@@H]12 (stereo partly drawn) [3d, 5-Bromo-3-(((3S,8R,9S,10S,13S,14S)-3-hydroxy-10,13-dimethyldodecahydro-1H-cyclopenta[a]phenanthren-17(2H,10H,14H)-ylidene)hydrazono)indolin-2-one]",14.1 ± 3.79,11.6 ± 2.84,8.29 ± 2.41,8.43 ± 2.23,,,
"C[C@]12CC[C@H](O)CC1CC[C@@H]1[C@@H]2CC[C@]2(C)C(=NN=C3C(=O)Nc4cc(F)ccc43)CC[C@@H]12 (stereo partly drawn) [3h, 6-Fluoro-3-(((3S,8R,9S,10S,13S,14S)-3-hydroxy-10,13-dimethyldodecahydro-1H-cyclopenta[a]phenanthren-17(2H,10H,14H)-ylidene)hydrazono)indolin-2-one]",7.87 ± 2.04,6.85 ± 1.99,4.85 ± 0.84,7.22 ± 1.17,,,
"C[C@]12CC[C@H](O)CC1CC[C@@H]1[C@@H]2CC[C@]2(C)C(=NN=C3C(=O)Nc4ccc(F)cc43)CC[C@@H]12 (stereo partly drawn) [3b, 5-Fluoro-3-(((3S,8R,9S,10S,13S,14S)-3-hydroxy-10,13-dimethyldodecahydro-1H-cyclopenta[a]phenanthren-17(2H,10H,14H)-ylidene)hydrazono)indolin-2-one]",5.49 ± 1.33,8.58 ± 1.64,6.12 ± 1.79,6.67 ± 1.77,,dose-dependent manner,
"C[C@]12CC[C@@H](O)C[C@@H]1CC[C@@H]1[C@@H]2CC[C@]2(C)C(=NN=C3C(=O)Nc4ccc(Br)cc43)CC[C@@H]12 [6d, 5-Bromo-3-(((3R,5S,8R,9S,10S,13S,14S)-3-hydroxy-10,13-dimethyldodecahydro-1H-cyclopenta[a]phenanthren-17(2H,10H,14H)-ylidene)hydrazono)indolin-2-one]",4.4 ± 0.68,8.08 ± 0.51,6.1 ± 2.09,7.14 ± 1.41,,,
"C[C@]12CC[C@@H](O)C[C@@H]1CC[C@@H]1[C@@H]2CC[C@]2(C)C(=NN=C3C(=O)Nc4ccc(I)cc43)CC[C@@H]12 [6e, 3-(((3R,5S,8R,9S,10S,13S,14S)-3-Hydroxy-10,13-dimethyldodecahydro-1H-cyclopenta[a]phenanthren-17(2H,10H,14H)-ylidene)hydrazono)-5-iodoindolin-2-one]",18.5 ± 1,19.7 ± 1.89,8.99 ± 3.13,17.1 ± 3.68,8 to 20,,
"C[C@]12CC[C@H](O)CC1CC[C@@H]1[C@@H]2CC[C@]2(C)C(=NN=C3C(=O)Nc4ccc(I)cc43)CC[C@@H]12 (stereo partly drawn) [3e, 3-(((3S,8R,9S,10S,13S,14S)-3-Hydroxy-10,13-dimethyldodecahydro-1H-cyclopenta[a]phenanthren-17(2H,10H,14H)-ylidene)hydrazono)-5-iodoindolin-2-one]",14 ± 2.83,23.8 ± 4.39,18.6 ± 4.79,21.7 ± 3.86,,,
"O=c1[nH]cc(F)c(=O)[nH]1 [5-FU, 5-Fluorouracil, reference compound]",,65.3 ± 7.3,63.2 ± 12.6,62 ± 8.38,,,86 ± 9.61
"C[C@]12CC[C@@H](O)C[C@@H]1CC[C@@H]1[C@@H]2CC[C@]2(C)C(=NN=C3C(=O)Nc4ccc(Cl)cc43)CC[C@@H]12 [6c, 5-Chloro-3-(((3R,5S,8R,9S,10S,13S,14S)-3-hydroxy-10,13-dimethyldodecahydro-1H-cyclopenta[a]phenanthren-17(2H,10H,14H)-ylidene)hydrazono)indolin-2-one]",6.36 ± 1.37,8.78 ± 0.64,4.84 ± 1.05,6.83 ± 2.01,,dose-dependent manner,
"C[C@]12CC[C@@H](O)C[C@@H]1CC[C@@H]1[C@@H]2CC[C@]2(C)C(=NN=C3C(=O)Nc4ccccc43)CC[C@@H]12 [6a, 3-(((3R,5S,8R,9S,10S,13S,14S)-3-Hydroxy-10,13-dimethyldodecahydro-1H-cyclopenta[a]phenanthren-17(2H,10H,14H)-ylidene)hydrazono)indolin-2-one]",8.29 ± 2.24,21.7 ± 4.82,20.4 ± 6.69,13.8 ± 2.65,,,
"Cc1ccc2c(c1)C(=NN=C1CC[C@H]3[C@@H]4CC[C@H]5C[C@H](O)CC[C@]5(C)[C@H]4CC[C@]13C)C(=O)N2 [6f, 3-(((3R,5S,8R,9S,10S,13S,14S)-3-Hydroxy-10,13-dimethyldodecahydro-1H-cyclopenta[a]phenanthren-17(2H,10H,14H)-ylidene)hydrazono)-5-methylindolin-2-one]",12.5 ± 4.36,8.25 ± 1.97,4.85 ± 1.07,9.12 ± 1.61,,,
"C[C@]12CC[C@@H](O)C[C@@H]1CC[C@@H]1[C@@H]2CC[C@]2(C)C(=NN=C3C(=O)Nc4cc(F)ccc43)CC[C@@H]12 [6h, 6-Fluoro-3-(((3R,5S,8R,9S,10S,13S,14S)-3-hydroxy-10,13-dimethyldodecahydro-1H-cyclopenta[a]phenanthren-17(2H,10H,14H)-ylidene)hydrazono)indolin-2-one]",12.8 ± 2.79,7.71 ± 2.13,5.41 ± 1.44,9.2 ± 1.68,,,
